Values of other authors as cited in US20220056154A1, “Bispecific Antibody Compositions and Methods for Treating COVID-19” (priority 2020, published 2022).

Biological target: hACE2 (Homo sapiens, UniProt Q9BYF1)
Conditions: 10 μM lisinopril, 10 μM captopril, 10 μM enalaprilat, 100 μM benzyl succinate, 10 mM EDTA; 100 μM angiotensin II; 37° C., 2 hours

hACE2, sequence (Q9BYF1 18-805): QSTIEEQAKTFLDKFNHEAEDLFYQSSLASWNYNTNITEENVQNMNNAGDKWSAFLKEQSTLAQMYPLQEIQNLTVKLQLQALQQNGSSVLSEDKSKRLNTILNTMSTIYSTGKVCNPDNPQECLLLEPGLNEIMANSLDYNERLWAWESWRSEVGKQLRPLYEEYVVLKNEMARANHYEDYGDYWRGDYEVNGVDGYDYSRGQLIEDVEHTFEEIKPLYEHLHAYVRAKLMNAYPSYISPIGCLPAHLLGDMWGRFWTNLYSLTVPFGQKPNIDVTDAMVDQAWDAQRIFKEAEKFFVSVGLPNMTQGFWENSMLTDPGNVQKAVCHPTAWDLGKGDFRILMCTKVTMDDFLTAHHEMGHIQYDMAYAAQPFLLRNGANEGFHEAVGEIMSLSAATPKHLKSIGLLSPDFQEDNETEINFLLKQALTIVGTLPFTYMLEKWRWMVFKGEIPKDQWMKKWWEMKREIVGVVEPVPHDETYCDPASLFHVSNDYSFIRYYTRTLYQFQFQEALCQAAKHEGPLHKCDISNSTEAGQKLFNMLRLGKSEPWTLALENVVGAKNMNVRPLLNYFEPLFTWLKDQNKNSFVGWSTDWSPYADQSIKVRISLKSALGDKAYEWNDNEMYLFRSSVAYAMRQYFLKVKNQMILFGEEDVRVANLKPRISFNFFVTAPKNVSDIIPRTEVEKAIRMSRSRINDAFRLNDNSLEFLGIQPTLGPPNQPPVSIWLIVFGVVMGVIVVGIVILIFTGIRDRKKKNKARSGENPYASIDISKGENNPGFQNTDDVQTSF

Row | SMILES | inhibition of hACE2 activity (angiotensin II cleavage)
1 | O=C(O)CN(CCN(CC(=O)O)CC(=O)O)CC(=O)O [EDTA] | inhibits hACE2 activity
2 | O=C(O)CC(Cc1ccccc1)C(=O)O (centres unmarked) [benzyl succinate] | none of lisinopril, captopril, enalaprilat, and benzyl succinate (a carboxypeptidase A inhibitor) inhibits hACE2 activity
